We go through 1 compound from EP2880993A1, “Method of achieving memory and learning improvement by the administration of sialic acid” (ABBOTT LABORATORIES, priority 2013, dated 2015).

The test system of assay [1] is rats. Description: Y-maze testing, Example 1 (Retention Trial and Memory Trial). It is filed as in vivo, Sprague-Dawley rat. The settings on record: PND90. The protocol: In order to establish the role of free sialic acid in cognition, rat pups were supplemented with free N-Acetylneuraminic acid (Neu5Ac) from postnatal day 3 (PND3) and their learning and memory abilities were analyzed later in life. Rat performance in a classical spatial cognitive task (Y-maze) was evaluated once the animals […]. LTP response in hippocampus was also evaluated postnatal day 110 (PND110).
The pups from the second cohort were divided into two groups and given the following designations: the SIA-supplemented group and the Control group. Pups in the SIA - supplemented group were given milk containing low sialic acid, and received a supplementation of free sialic acid since the same day of transfer to the foster mothers until weaning. There were a total of 12 male pups in the SIA -supplemented group. The SIA -supplemented group received free sialic acid supplementation (8 doses/day) in order to reach the same free sialic acid levels as normally reared pups. The amount of free sialic acid given to the SIA-supplemented group was selected to follow the change in concentration of sialic acid in rat milk, ranging from 1.5 g/Kg body weight on day 3 to 0.5 g/Kg body weight at weaning. The amount of sialic acid given to any pup was a maximum of 1.8 mg/Kg body weight on day 8.
The Y-maze is a widely accepted method of testing spatial orientation and memory capabilities in rats. Ten rats in each group were evaluated in the Y-maze. At postnatal day 90 (PND90) for each group, the rats were subjected to a training trial (hereinafter, the "Training Trial"). The approximate equivalent in human years to 90 days of rat life is 10 to 20 years of age. At 5 minutes post training, rats in each group were tested again to test their retention (hereinafter, the "Retention Trial"). At 48 hours post training, rats in each group were tested again to test their memory, (hereinafter, the "Memory Trial").
During the Training Trial, one of the three arms of the Y-maze was blocked, and animals were allowed to explore the other two arms for 15 minutes. During the Retention Trial and the Memory Trial, all three arms were open and animals were allowed to explore for 5 minutes. The amount of time each animal spent at the start of the Y-maze and each arm was evaluated.
During the Memory Trial, performed 48 hours after the Training Trial, a long time spent at the start of the Y-maze denotes anxiety and neophobia. Conversely, the longer time an animal spent at the novel arm indicates an interest in novelty and apparent ability to recognize which arms they had visited previously.

Assay [2] deals with hippocampal CA3-CAl areas. Briefly: Long-term potentiation (LTP) testing in vivo, Example 2. The settings on record: 11 months old; after the second day, followed for up to 4 days; FIG. 4. Details: species or system Sprague-Dawley rat. The protocol:
In order to establish the role of sialylated oligosaccharides in cognition, rat pups were supplemented with 6'-sialyllactose (6'-SL) from postnatal day 3 (PND3) and their learning and memory abilities were analyzed later in life. Rat performance in a classical spatial cognitive task (Y-maze), Novel object Recognition, protocol of spatial learning in the novel Intellicage® system, and Morris water maze were carried out once the animals reached 12 and 14 months of age. LTP response in hippocampus was also evaluated in vivo once the animals reached 11 months of age. The Y-maze, Object Recognition and the IntelliCage® allow the determination of spatial orientation and memory capabilities of experimental animals. The same female rats performed all the tests.
The pups from the second cohort were divided into three groups and given the following designations: the 6'-SL supplemented group, the NeuAc supplemented group and the control group. Initially, each group comprised 20 male pups. Due to premature deaths there were a total of 14 pups in the 6'-SL supplemented group at the end of the lactation. The 6'-SL supplemented group received 6'-SL supplementation (8 doses/day) in order to reach the same sialic acid levels as normally reared pups. The amount of 6'-SL given to the 6'-SL supplemented group was selected to follow the change in concentration of sialic acid in rat milk, ranging from 1.5 g/Kg body weight on day 3 to 0.5 g/Kg body weight at weaning. The maximum amount of sialic acid given to a pup was a maximum of 2 mg/Kg on day 8.
There were a total of 16 male pups in the NeuAc supplemented group at the end of lactation. The NeuAc supplemented group received NeuAc supplementation in order to reach the same sialic acid levels as normally reared pups. The amount of NeuAc given to the NeuAc supplemented group was selected to follow the change in concentration of sialic acid in rat milk, ranging from 1.5 g/Kg body weight on day 3 to 0.5 g/Kg body weight at weaning. The maximum amount of sialic acid given to any pup was 2 mg/Kg on day 8,
Long-term potentiation (LTP) measurements were performed in each of the three groups, i.e., the 6'-SL Supplemented Group, the NeuAc -Supplemented Group and the Control Group. The testing was done while the animals were alive and 11 months old, which is about age 40 in human years. Experiments were done in order to determine the functionality of hippocampus in vivo. […]
To evoke LTP, the following high frequency stimulation (HFS) protocol was used: each animal was subjected to five 200 Hz, 100 ms trains of pulses at a rate of l/s. […] After the HFS protocol, fEPSPs were recorded again for 30 minutes. […]
The HFS train is indicated by the downward arrow. […] The baseline was recorded at 15, 10, and 5 minutes before HFS.

Assay [3] concerns rats. Briefly: Intellicage testing, Example 2. The class given is in vivo, Sprague-Dawley rat. The following applies: 14-15 months old, compared with Control group. The protocol:
IntelliCage® (NewBehavior AG) is a computer-based, fully automated testing apparatus used to analyze spontaneous and learned behavior. Eight rats in each group were tested. The rats were 14-15 months old, which corresponds to 55-60 years old for humans, when these tests were performed. Animals remain in the cage during several days and behavior is recorded during the entire testing period. Different paradigms can be tested by restricting water access to specific places and time periods. Each animal is assigned a corner where it can access water. Access to the water is only allowed during discrete time periods. Thus, each animal must learn when access to water bottles is allowed and which corner, out of four, has been assigned to it. Access to the corner is controlled by a door that opens only when the assigned rat enters its nose in a hole. […] Access to non-assigned corners remain blocked except during two 90 min periods during the night.

The mark [4] stands for this setting: Memory Trial 48 hours post training, read from FIG. 2.

As for `CC(=O)N[C@H]1[C@H]([C@H](O)[C@H](O)CO)OC(O)(C(=O)O)C[C@@H]1O` (stereo partly shown) [SIA, N-Acetylneuraminic acid], in assay [1] (setting [4]), the “time spent in the novel arm” value was “about 65 seconds” and the “time spent in the start arm” value is on record as “about 40 seconds”. Further, in assay [1] (compared with Reference Group / non-supplemented control animals, listed as free sialic acid), the “Y-maze performance, in words” value is “performed better and similarly to reference animals”. Besides, in assay [1] (Retention Trial 5 minutes post training, pups supplemented PND3 to weaning, read from FIG. 1), the “novel arm preference (percentage of animals that preferred the novel arm first)” value is reported as “about 57%”. Also, the “persistence of LTP induction” value in assay [2] is reported as “remaining”. Besides, the speed of learning entry in assay [3] was “seemed to learn faster than the Control group”. In addition, the “visits to the correct corner versus the incorrect corner (performance)” value in assay [3] (FIG. 8) is “performed better compared to the Control group”.
